Test system: amphetamine-evoked hyperlocomotion
Assay: Amphetamine-evoked hyperlocomotion in rats (open field)
Type: in vivo, rat
Conditions: Sprague Dawley rats, 0.5 mg/kg amphetamine s.c., distance traveled in the 60 min after AMP
Procedure: Compounds may be tested for ability to impact behavior activity of rats according to the following procedures. Animals: Adult male, Sprague Dawley rats (Envigo, Indianapolis, IN, USA) are housed in a colony maintained at 23° C. with 12 h light/dark cycles (lights on at 0600 hours). All animals weigh 290-330 g at the beginning of the study and are equally divided into 5 groups (n=8 per group) and received one of the treatment conditions listed below. Behavioral Procedures: Studies are conducted in MedAssociates open field chambers (27.3 cm×27.3 cm×20.3 cm, MedAssociates, St. Albans, VT) in which movement is automatically tracked and recorded by 16 beam arrays. The administration pretreatment of the test article is determined to coincide with Tmax at the time of the amphetamine-evoked session with optimal route of administration. All groups are subcutaneously treated with 0.5 mg/kg amphetamine (AMP). The test article is tested in three dose groups with a half-log increase between doses. Risperidone (0.55 mg/kg, 30 minutes, s.c.) may be used as a positive control and is administered to group 5. To determine the role of test article on AMP-evoked hyperlocomotion, rats are placed in the open area and allowed to habituate for 30 min before being s.c. dosed with 0.5 mg/kg AMP. Locomotor data (distance traveled) is recorded as 5-minute bins throughout the 90-minute session. The dose of AMP is chosen based on the selective increase in locomotor behavior relative to stereotypes. The dose of risperidone is chosen that produced reliable effects and served as a positive control. Statistical Analysis: Spontaneous locomotion (prior to AMP administration) is calculated as the total distance traveled during the first 30 minutes of the experimental session. AMP-evoked responses are calculated as the total distance traveled during the last 60 minutes of the experimental session which commenced immediately after AMP administration. Locomotor data may be analyzed by a one-way ANOVA. When there is a significant overall ANOVA, post hoc comparisons may be made by Dunnett's test with statistical significance determined as p<0.05. […] Behavioral Procedures: Studies were conducted in MedAssociates open field chambers (27.3 cm×27.3 cm×20.3 cm, MedAssociates, St. Albans, VT) in which movement was automatically tracked and recorded by 16 beam arrays. Administration pretreatment of the test article was determined to coincide with Tmax at the time of the amphetamine-evoked session with optimal route of administration. […] Locomotor data (distance traveled) was recorded as 5-minute bins throughout the 90-minute session. […] Statistical Analysis: Spontaneous locomotion (prior to AMP administration) was calculated as the total distance traveled during the first 30 minutes of the experimental session. […]

| SMILES | Dose Amount of Compound at which rats displayed a reduction in amphetamine-evoked hyperlocomotion activity [mg/kg] |
| --- | --- |
| Cc1c2c(n(C)c(=O)c1F)CN(C(=O)CC1CN(c3ccc(C4CC4)c(F)c3)C1)C2 [Compound I-88] | 10 |
| Cc1cc(=O)n(C)c2c1CN(C(=O)CC1CN(c3cccc(F)c3F)C1)C2 [Compound I-14] | 32 |
| Cc1cc(=O)n(C)c2c1CN(C(=O)CC1CN(c3cc(F)cc(C4CC4)c3)C1)C2 [Compound I-4] | 10 |
| Cc1c2c(n(C)c(=O)c1C)CN(C(=O)CC1CN(c3ccnc(C(F)(F)F)c3)C1)C2 [Compound I-42, 1,3,4-Trimethyl-6-(2-(1-(2-(trifluoromethyl)pyridin-4-yl)azetidin-3-yl)acetyl)-1,5,6,7-tetrahydro-2H-pyrrolo[3,4-b]pyridin-2-one] | 32 |

Source: US20260209220A1, “SUBSTITUTED TETRAHYDROPYRROLO-PYRIDINONE COMPOUNDS AND THEIR USE IN TREATING MEDICAL CONDITIONS” (Karuna Therapeutics, Inc., priority 2022, published 2026)
